{
  "source": "patent US20180161383A1",
  "about": "“NATURAL PHARMACEUTICAL COMPOSITION FOR TREATING MENOPAUSAL MENTAL DEPRESSION AND ATYPICAL DEPRESSIVE DISORDER AND APPLICATION THEREOF” (SHAANXI TIANKUI BIOMEDICINE TECHNOLOGY LIMITED COMPANY, priority 2015, published 2018)",
  "assay_type_in_all_cases": "in vivo",
  "key": {"[1]": {"test_system": "rats suffering from the menopausal depression", "assay": "open-field test of rats", "parameters": "After medication minus Before medication (Fecal weight) / Fecal weight: unit not given here", "settings": "positive drug group, dose not given"}, "[2]": {"test_system": "rats suffering from the menopausal depression", "assay": "open-field water drinking test of rats", "settings": "positive drug group, dose not given"}, "[3]": {"test_system": "adrenocorticotrophic hormone", "assay": "ELISA, content of adrenocorticotrophic hormone in serum of rats", "settings": "rat serum, positive drug group, dose not given", "protocol": "(§1) drenching animals in sequence to put to death within 3 cycles, enabling the animals to have empty stomachs for 12 hours before putting to death, and performing intraperitoneal anesthesia with 3% of pentobarbital sodium at a dose of 0.1 ml/100 g; and taking 8 ml of whole blood in a centrifuge tube, centrifuging at a rate of 4000 r/min for 15 min, separating the serum after centrifuging, labeling, and separately filling and preserving in a refrigerator of −20° C.; 2) ELISA Determination Method is as Follows: Detection is performed according to description of an ELISA kit. Before use, all reagents are fully and uniformly mixed. Lots of bubbles should not be produced in liquid, so as to avoid generating a sample adding error due to addition of lots of bubbles during sample adding. The quantity of needed plates is determined according to a quantity of to-be-detected samples and the quantity of standard substances. […] However, since many samples need to be determined, single holes should be made according to actual conditions. […] A basic principle of enzyme-labeled immunoassay is as follows: an antibody connected onto a solid-phase carrier and an enzyme-labeled antibody are respectively bound to two antigenic determinants on a detected antigen molecule in the sample to form a solid-phase antibody-antigen-enzyme-labeled antibody immune complex. […]"}, "[4]": {"test_system": "noradrenaline", "assay": "ELISA, content of noradrenaline in serum of rats", "settings": "rat serum, positive drug group, dose not given", "protocol": "as §1"}, "[5]": {"test_system": "5-hydroxytryptamine", "assay": "ELISA, content of 5-hydroxytryptamine in serum of rats", "settings": "rat serum, positive drug group, dose not given", "protocol": "as §1"}, "[6]": {"test_system": "dopamine", "assay": "ELISA, content of dopamine in serum of rats", "settings": "rat serum, positive drug group, dose not given", "protocol": "as §1"}, "[7]": {"test_system": "cAMP", "assay": "ELISA, content of cAMP in serum of rats", "settings": "rat serum, positive drug group, dose not given", "protocol": "as §1"}, "[8]": {"test_system": "cGMP", "assay": "ELISA, content of cGMP in serum of rats", "settings": "rat serum, positive drug group, dose not given", "protocol": "as §1"}, "[9]": {"test_system": "oxytocin", "assay": "ELISA, content of oxytocin in serum of rats", "settings": "rat serum, positive drug group, dose not given", "protocol": "as §1"}, "[10]": {"test_system": "follicle-stimulating hormone", "assay": "ELISA, content of follicle-stimulating hormone in serum of rats", "settings": "rat serum, positive drug group, dose not given", "protocol": "as §1"}, "[11]": {"test_system": "estradiol", "assay": "ELISA, content of estradiol in serum of rats", "settings": "rat serum, positive drug group, dose not given", "protocol": "as §1"}, "[12]": {"test_system": "IL-6", "assay": "ELISA, content of IL-6 in serum of rats", "settings": "rat serum, positive drug group, dose not given", "protocol": "as §1"}, "[13]": {"test_system": "IL-2", "assay": "ELISA, content of IL-2 in serum of rats", "settings": "rat serum, positive drug group, dose not given", "protocol": "as §1"}, "[14]": {"test_system": "IL-8", "assay": "ELISA, content of IL-8 in serum of rats", "settings": "rat serum, positive drug group, dose not given", "protocol": "as §1"}},
  "data": [
    {"smiles": "Fc1ccc([C@@H]2CCNC[C@H]2COc2ccc3c(c2)OCO3)cc1", "note": "[Paroxetine, paroxetine]", "values": [
      {"measurement": "Fecal weight", "setting": "[1]; rats after medication", "result": "0.14 ± 0.38"},
      {"measurement": "Horizontal scores", "setting": "[1]; rats after medication", "result": "78.29 ± 28.18"},
      {"measurement": "Vertical scores", "setting": "[1]; rats after medication", "result": "9.57 ± 4.68"},
      {"measurement": "After medication minus Before medication (Fecal weight)", "setting": "[1]; rats", "result": "−0.94 ± 0.71"},
      {"measurement": "After medication minus before medication (horizontal scores)", "setting": "[1]; rats", "result": "41.14 ± 28.54"},
      {"measurement": "Number of times approaching to water bottles", "setting": "[2]; rats after medication", "result": "10.43 ± 5.09"},
      {"measurement": "Number of times standing", "setting": "[2]; rats after medication", "result": "11.28 ± 4.23"},
      {"measurement": "Water drinking latent period", "setting": "[2]; rats after medication", "result": "88.86 ± 20.05"},
      {"measurement": "Water drinking time", "setting": "[2]; rats after medication", "result": "112.14 ± 50.83"},
      {"measurement": "After medication minus Before medication (Frequencies of approaching water bottles)", "setting": "[2]; rats", "result": "6.5742 ± 4.0443"},
      {"measurement": "After medication minus Before medication (Standing frequency)", "setting": "[2]; rats", "result": "7.5728 ± 4.5413"},
      {"measurement": "After medication minus Before medication (Water drinking time)", "setting": "[2]; rats", "result": "112.14 ± 50.83"},
      {"measurement": "After medication minus Medication (Water drinking latent period)", "setting": "[2]; rats", "result": "70.43 ± 35.65"},
      {"measurement": "ACTH", "setting": "[3]", "result": "16.3682 ± 1.8767", "unit": "ng/L"},
      {"measurement": "NA", "setting": "[4]", "result": "32.5359 ± 5.6128", "unit": "ng/L"},
      {"measurement": "5-HT", "setting": "[5]", "result": "42.9048 ± 6.2922", "unit": "ng/L"},
      {"measurement": "DA", "setting": "[6]", "result": "7.6595 ± 1.3337", "unit": "pg/L"},
      {"measurement": "cAMP", "setting": "[7]", "result": "2.7761 ± 0.3726", "unit": "U/L"},
      {"measurement": "cGMP", "setting": "[8]", "result": "1.8333 ± 0.4686", "unit": "U/L"},
      {"measurement": "OT", "setting": "[9]", "result": "4.1889 ± 0.8811", "unit": "ng/L"},
      {"measurement": "FSH", "setting": "[10]", "result": "3.7068 ± 0.6242", "unit": "IU/L"},
      {"measurement": "E2", "setting": "[11]", "result": "10.0566 ± 0.7140", "unit": "ng/L"},
      {"measurement": "IL-6", "setting": "[12]", "result": "14.9800 ± 2.9183", "unit": "ng/mL"},
      {"measurement": "IL-2", "setting": "[13]", "result": "341.853 ± 59.289", "unit": "ng/L"},
      {"measurement": "IL-8", "setting": "[14]", "result": "196.479 ± 14.596", "unit": "ng/L"}
    ]}
  ]
}
